Where a name gives a salt, the structure may show the parent alone.
Test system: imDAPs
Experiment: imDAP maturation, cell morphology and adhesion (bright-field)
Type: cell-based, human
Details: 10 μM Y27632; coating 1 μg/cm^2 for each; day 7
Procedure: were produced according to the method described in CN201910169525.0, and expanded as described in Example 10. The expanded […] were seeded on VTN-coated (1 μg/cm^2) plates at a density of 5×10^5 cells/cm^2 (Day 0), and cultured in the maturation medium ([…]) supplemented with 1 μM IWR1. MM-P used in Example 11 contained the following components: NeurobasalTM medium, 1% (v/v) Glutamax, 0.5 mM Db-cAMP sodium salt, 200 μM ascorbic acid, 20 ng/ml BDNF, 20 ng/ml GDNF, 1 ng/ml TGF-β3, 10 μM DAPT, hPLT (0.5%, 1%, 2%). MM-H used in Example 11 contained the following components: NeurobasalTM medium, 1% (v/v) Glutamax, 0.5 mM Db-cAMP sodium salt, 200 μM ascorbic acid, 20 ng/ml BDNF, 20 ng/ml GDNF, 1 ng/ml TGF-β3, […], HhPLT (0.5%, 1%, 2%). MM-B used in Example 11 contained the following components: Neurobasal, 1% (v/v) Glutamax, 0.5 mM Db-cAMP sodium salt, 200 μM ascorbic acid, 20 ng/ml BDNF, 20 ng/ml GDNF, 1 ng/ml TGF-β 3, 10 μM DAPT, 2% (v/v) B27 (50×) (as control). The above HhPLT was produced from hPLT as follows. The hPLT was centrifuged at 3000 g for 30 min at 4° C. to obtain the supernatant, which was heated to 56° C. for 30 min. […] Cells were collected and counted by Vi-cell cytometer. The cells were analyzed by RT-qPCR for EN1, LMX1A, FOXA2, NURR1, SOX6 and TH gene expression. […]

**Q.** `C[C@@H](N)[C@H]1CC[C@H](C(=O)Nc2ccncc2)CC1` [Y27632, (R)-(+)-trans-4-(1-aminoethyl)-N-(4-pyridyl) cyclohexanecarboxamide dihydrochloride] was tested. Which “cell adhesion and growth in maturation media supplemented with Y27632 (FIG. 8A)” value did it give?
**A.** could promote cell adhesion at a certain degree

From patent US20240327787A1, “CULTURE MEDIUM, COATING MATRIX AND METHOD FOR EXPANDING MIDBRAIN DOPAMINERGIC PROGENITOR CELLS” (NUWACELL BIOTECHNOLOGIES CO., LTD., priority 2022, published 2024)
